The values that follow come from US5215972A, “Steroids” (Hoffmann-La Roche Inc., priority 1989, dated 1993).

Series [1] is described as follows: Acute toxicity, single oral or intravenous administration to mice. The following applies: mouse, in vivo. An excerpt:
(§1) The results which have been obtained with some representative products in accordance with the invention are reproduced in Table I. For each of the compounds indicated in Table I the cholesterol resorption, determined at a dosage of 100 μmol/kg p.o., is given in percentages of the control values determined prior to the medication (pre-period). Moreover, the Table contains data concerning the acute toxicity of the compounds investigated (LD50 in mg/kg in the case of single oral or intravenous administration to mice).

In series [2] the test system is intestinal resorption of cholesterol. Kind of series: Inhibition of intestinal resorption of [26-^14 C]-cholesterol (CHORES) in squirrel monkeys. It is filed as in vivo. The following applies: Primates, po, 60 h, 100 μmol/kg p.o., percent of control values determined prior to medication (pre-period), feces collected 2.5 days.
Source text: Squirrel monkeys are orally administered the substances to be investigated together with a test feed containing a protein, starch, triolein and [26-^14 C]-cholesterol. Thereafter, the feces is collected for 2.5 days. The difference between the administered and the collected radioactive cholesterol determined in the feces is taken as the measurement of resorbed cholesterol. The cholesterol resorption (CHORES) is expressed in percentages of the control values determined prior to the medication.
as §1

[3] abbreviates: i.v., single intravenous administration to mice, read-out: LD50 i.v.
[4] abbreviates: p.o., single oral administration to mice, read-out: LD50 p.o.

Structures can show the parent of a compound that is named as a salt. Where two headings read alike, the source gives them in different places.

The term LD50 denotes the dose at which mortality reaches 50%. Regarding `CC[C@H](CC[C@@H](C)[C@H]1CC[C@H]2[C@@H]3CC[C@H]4C[C@@H](OC(=O)OCCOP(=O)([O-])OCC[N+](C)(C)C)CC[C@]4(C)[C@H]3CC[C@]12C)C(C)C` [Example 2a, O-[[2-[[(5α-stigmastan-3β-yloxy)carbonyl]oxy]ethoxy]hydroxyphosphinyl]choline hydroxide internal salt], the LD50 came to 250 mg/kg in series [1] (setting [3]) and 4000 mg/kg in series [1] (setting [4]). For the same compound, in series [2], the response vs control in vivo at 100 µmol/kg turned out to be 38%.

Regarding `CC[C@H](CC[C@@H](C)[C@H]1CC[C@H]2[C@@H]3CC[C@H]4C[C@@H](OC(=O)CCCOP(=O)([O-])OCC[N+](C)(C)C)CC[C@]4(C)[C@H]3CC[C@]12C)C(C)C` [Example 2k, O-[hydroxy-[3-[(3β-stigmastanyloxy)carbonyl]propoxy]phosphinyl]choline hydroxide internal salt], the LD50 is 250 mg/kg in series [1] (setting [3]) and 4000 mg/kg in series [1] (setting [4]). This compound also showed a response vs control in vivo at 100 µmol/kg in series [2] of 39%.

For `CC(C)CCC[C@@H](C)[C@H]1CC[C@H]2[C@@H]3CC=C4C[C@@H](OCCOP(=O)([O-])OCC[N+](C)(C)C)CC[C@]4(C)[C@H]3CC[C@]12C` [Example 2q, O-[[2-(cholest-5-en-3β-yloxy)ethoxy]hydroxyphosphinyl]choline hydroxide internal salt], the 50% lethal dose (LD50) was determined as 250 mg/kg in series [1] (setting [3]) and 4000 mg/kg in series [1] (setting [4]). The response vs control in vivo at 100 µmol/kg in series [2] turned out to be 16%.

`CC[C@H](/C=C/[C@@H](C)[C@H]1CC[C@H]2[C@@H]3CC=C4C[C@@H](OCCOP(=O)([O-])OCC[N+](C)(C)C)CC[C@]4(C)[C@H]3CC[C@]12C)C(C)C` [Example 2r, O-[hydroxy-[2-(stigmasta-5,22-dien-3β-yloxy)ethoxy]phosphinyl]cholinehydroxide internal salt]: the 50% lethal dose (LD50) in series [1] (setting [3]) worked out at 500 mg/kg; in series [1] (setting [4]), 4000 mg/kg. For the same compound, in series [2], the response vs control in vivo at 100 µmol/kg amounted to 37%.

`CC[C@H](CC[C@@H](C)[C@H]1CC[C@H]2[C@@H]3CC[C@H]4C[C@@H](OCCOCCOP(=O)([O-])OCC[N+](C)(C)C)CC[C@]4(C)[C@H]3CC[C@]12C)C(C)C` [Example 4a, O-[hydroxy-[2-[2-(3β-stigmastanyloxy)ethoxy]ethoxy]phosphinyl]cholinehydroxide internal salt] gave a response vs control in vivo at 100 µmol/kg in series [2] of 30%.

In series [2], `CC[C@H](CC[C@@H](C)[C@H]1CC[C@H]2[C@@H]3CC[C@H]4C[C@@H](OC(=O)NCCOP(=O)([O-])OCC[N+](C)(C)C)CC[C@]4(C)[C@H]3CC[C@]12C)C(C)C` [Example 5, O-[hydroxy-[2-[1-(5α-stigmastan-3β-yloxy)formamido]ethoxy]phosphinyl]choline hydroxide internal salt] had a response vs control in vivo at 100 µmol/kg of 40%.

With `CC[C@H](CC[C@@H](C)[C@H]1CC[C@H]2[C@@H]3CC[C@H]4C[C@@H](OC(=O)NCCOP(=O)([O-])OCC[n+]5ccccc5)CC[C@]4(C)[C@H]3CC[C@]12C)C(C)C` [Example 6, 1-[2-[[hydroxy-[2-[1-(5α-stigmastan-3β-yloxy)-formamido]ethoxy]phosphinyl]oxy]ethyl]pyridinum hydroxide internal salt], the LD50 in series [1] (setting [4]) is 4000 mg/kg. This compound also returned a response vs control in vivo at 100 µmol/kg in series [2] of 31%.

For `CC[C@H](/C=C/[C@@H](C)[C@H]1CC[C@H]2[C@@H]3CC=C4C[C@@H](OC(=O)NCCOP(=O)([O-])OCC[N+](C)(C)C)CC[C@]4(C)[C@H]3CC[C@]12C)C(C)C` [Example 7a, O-[hydroxy-[2-[1-[(E)-stigmasta-5,22-dien-3β-yloxy]formamido]ethoxy]phosphinyl]choline hydroxide internal salt], the response vs control in vivo at 100 µmol/kg in series [2] was determined as 35%.

`CC[C@H](CC[C@@H](C)[C@H]1CC[C@H]2[C@@H]3CC=C4C[C@@H](OC(=O)OCCOP(=O)([O-])OCC[N+](C)(C)C)CC[C@]4(C)[C@H]3CC[C@]12C)C(C)C` [Example 16, O-[hydroxy-[2-[[(stigmast-5-en-3β-yloxy)carbonyl]oxy]ethoxy]-phosphinyl]choline hydroxide internal salt] yielded a response vs control in vivo at 100 µmol/kg in series [2] of 40%.
